Results published in patent US11174242B2, “Heteroaryl compounds and their use” (Minoryx Therapeutics S.L., priority 2016, dated 2021).
Changes are numbered by the printed parent chain.

What was measured:
[1] = molecular target: T1, β-glucocerebrosidase Wild Type (WT) (Homo sapiens, UniProt P04062); assay: β-glucocerebrosidase activity enhancement, Wild Type (WT); format: cell-based; conditions: increase in enzyme activity vs non-treated cells; for Activity WT: commercially available compounds
T1 construct: endogenous in cells
T1 sequence (P04062 40-536): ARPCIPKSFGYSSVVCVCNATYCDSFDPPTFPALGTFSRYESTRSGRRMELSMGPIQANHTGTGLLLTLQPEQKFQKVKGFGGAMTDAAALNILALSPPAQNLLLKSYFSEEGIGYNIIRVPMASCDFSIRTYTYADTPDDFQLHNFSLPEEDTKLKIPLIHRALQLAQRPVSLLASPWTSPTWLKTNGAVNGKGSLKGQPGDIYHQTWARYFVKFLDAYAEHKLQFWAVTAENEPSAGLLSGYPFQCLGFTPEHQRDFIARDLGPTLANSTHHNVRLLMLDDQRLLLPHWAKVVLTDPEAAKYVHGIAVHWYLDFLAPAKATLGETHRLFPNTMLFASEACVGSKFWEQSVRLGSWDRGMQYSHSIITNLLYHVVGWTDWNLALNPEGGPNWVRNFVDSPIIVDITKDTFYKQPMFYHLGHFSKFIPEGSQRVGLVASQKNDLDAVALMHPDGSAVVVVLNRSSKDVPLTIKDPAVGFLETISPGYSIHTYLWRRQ
Procedure: Fibroblasts were seeded at 5×10^3 cells per well in 96-well cell culture plates (Corning, N.Y., USA) in Dulbecco's Modified Eagle's Media (DMEM) supplemented with 10% of fetal bovine serum (FBS), 1% penicillin/streptomycin (P/S) (Thermo Fisher Scientific, Waltham, Mass., USA) and grown at 37° C., 5% CO2 overnight for cell attachment. Subsequently, cells were incubated in the absence or presence of the compounds at the desired concentration for 4 days. After incubation, cells were washed twice with phosphate-buffered saline (PBS) and enzyme activity assay was performed.
β-glucocerebrosidase activity in intact cultured cells was measured by using 4-methylumbelliferyl-β-D-glucopyranoside substrate (Apollo Scientific, UK). Briefly, cells were incubated with 4-MU-β-D-glucopyranoside in 0.1 M acetate buffer pH=4 at 37° C. for 1 hour. […] The liberated 4-MU was measured on a GloMax Discover plate reader (Promega, Madison, Wis., USA) with and excitation at 340 nm and emission at 460 nm. Enzyme activities were expressed in treated cells as X-fold increase in comparison with non-treated cells (X=1 represents no enhancement).
The following compounds listed in Table 2 were purchased (from Enamine, Princeton, Asinex, Vistas-M, and OSSK_541352) and tested in the assay as described above.

[2] = molecular target: T2, β-glucocerebrosidase, p.L444P mutation (GM08760A fibroblasts) (Homo sapiens, UniProt P04062, L483P); assay: Enhancement of β-glucocerebrosidase activity measured in Gaucher disease fibroblasts (L444P); format: cell-based; conditions: increase in enzyme activity vs non-treated cells, GBA fibroblasts bearing L444P
T2 construct: host or cells: human Gaucher patient fibroblasts GM08760A, homozygous L444P
T2 sequence (P04062 40-536 L483P): T1 sequence (P04062 40-536) with L444P
How it was run: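 GM08760A fibroblasts (homozygous p.L444P), 5×10^3 cells/well, treated with compound for 4 days at 37° C. Intact cells then incubated with 4-MU-β-D-glucopyranoside in 0.1 M acetate buffer pH=4 for 1 hour at 37° C.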

[3] = concentrations between 6 and 50 μM, 4 days incubation
[4] = commercially available compounds, 6-50 μM, 4 days

| SMILES | Activity Wild Type (WT) [1] | Activity L444P [2, 3] | Activity WT [1] | Activity L444P [2, 4] |
| --- | --- | --- | --- | --- |
| Cc1ccc(Nc2nc(N)nc(CN(C)Cc3ccccc3)n2)cc1 [Example 4, 6-((Benzyl(methyl)amino)methyl)-N^2-p-tolyl-1,3,5-trizine-2,4-diamine] | A (Increase in comparison with non-treated of >2.0 fold is shown as A) | C (Increase in comparison with non-treated of 1.2-1.7 fold is shown as C) |  |  |
| COc1ccc(CN(C)Cc2cc(Nc3ccc(C)cc3)nc(N)n2)cc1 [Example 33, 6-(((4-Methoxybenzyl)(methyl)amino)methyl)-N^4-p-tolylpyrimidine-2,4-diamine] | B (Increase in comparison with non-treated of >1.7-2.0 fold is shown as B) | B (Increase in comparison with non-treated of >1.7-2.0 fold is shown as B) |  |  |
| COc1cccc(Nc2nc(N)nc(CN(C)c3ccccc3)n2)c1 [Example 3] | B (Increase in comparison with non-treated of >1.7-2.0 fold is shown as B) | C (Increase in comparison with non-treated of 1.2-1.7 fold is shown as C) |  |  |
| Cc1ccc(Nc2nc(N)nc(CN3CCc4ccccc4C3)n2)cc1 [6-((3,4-dihydroisoquinolin-2(1H)-yl)methyl)-N2-(p-tolyl)-1,3,5-triazine-2,4-diamine] |  |  | B (Increase in comparison with non-treated of >1.7-2.0 fold is shown as B) | B (Increase in comparison with non-treated of >1.7-2.0 fold is shown as B) |
| COc1cccc(Nc2nc(N)cc(CN(C)Cc3ccccc3)n2)c1 [Example 69, 6-((Benzyl(methyl)amino)methyl)-N^2-(3-methoxyphenyl)pyrimidine-2,4-diamine] | C (Increase in comparison with non-treated of 1.2-1.7 fold is shown as C) | A (Increase in comparison with non-treated of >2.0 fold is shown as A) |  |  |
| CN(Cc1ccccc1)Cc1nc(N)nc(Nc2cccc(Br)c2)n1 [Example 8] | B (Increase in comparison with non-treated of >1.7-2.0 fold is shown as B) | B (Increase in comparison with non-treated of >1.7-2.0 fold is shown as B) |  |  |
| CN(Cc1ccccc1)Cc1cc(Nc2cccc3c2OCO3)nc(N)n1 [Example 43, N^4-(Benzo[d][1,3]dioxol-4-yl)-6-((benzyl(methyl)amino)methyl)pyrimidine-2,4-diamine] | C (Increase in comparison with non-treated of 1.2-1.7 fold is shown as C) | C (Increase in comparison with non-treated of 1.2-1.7 fold is shown as C) |  |  |
| COc1ccc(C)cc1Nc1cc(CN(C)Cc2ccccc2)nc(N)n1 [Example 46, 6-((Benzyl(methyl)amino)methyl)-N^4-(2-methoxy-5-methylphenyl)pyrimidine-2,4-diamine] | B (Increase in comparison with non-treated of >1.7-2.0 fold is shown as B) | B (Increase in comparison with non-treated of >1.7-2.0 fold is shown as B) |  |  |
| Cc1ccc(Nc2nc(N)nc(CN3CCCc4ccccc43)n2)cc1 [6-((3,4-dihydroquinolin-1(2H)-yl)methyl)-N2-(p-tolyl)-1,3,5-triazine-2,4-diamine] |  |  | C (Increase in comparison with non-treated of 1.2-1.7 fold is shown as C) | C (Increase in comparison with non-treated of 1.2-1.7 fold is shown as C) |
| Cc1ccc(Nc2cc(CN(C)c3ccccc3)nc(N)n2)cc1 [Example 13, 6-((Methyl(phenyl)amino)methyl)-N^4-(p-tolyl)pyrimidine-2,4-diamine] | B (Increase in comparison with non-treated of >1.7-2.0 fold is shown as B) | B (Increase in comparison with non-treated of >1.7-2.0 fold is shown as B) |  |  |
